Experimental data: patent US20130029976A1, “PEST CONTROLLING COMPOSITION” (SUMITOMO CHEMICAL COMPANY, LIMITED, priority 2010, published 2013)

Test system: third instar larvae of Spodoptera litura
Assay: Test Example 1: cabbage leaf immersion test, insecticidal ratio
Type: in vivo
Settings: cabbage leaf immersed 60 seconds, 2 days after, three replications
Method: A flowable formulation containing 10.0% by weight of pyridalyl (trade name: Pleo® flowable, manufactured by Sumitomo Chemical Co., Ltd.) was diluted with water containing 0.02% by volume of a spreading agent (trade name: Sindain®, manufactured by Sumitomo Chemical Co., Ltd.) so as to adjust the concentration of pyridalyl to 12.5 ppm.
A flowable formulation containing 10.0% by weight of indoxacarb (trade name: Tornado® flowable, manufactured by DuPont) was diluted with water containing 0.02% by volume of a spreading agent (trade name: Sindain®, manufactured by Sumitomo Chemical Co., Ltd.) so as to adjust the concentration of indoxacarb to 6.25 ppm.
The water dilution of pyridalyl and the water dilution of indoxacarb were mixed in the same amount to prepare a test chemical solution.
A cabbage was planted in a pot having a volume of 860 ml and grown to the forth leaf stage. Each leaf of the cabbage seedling was cut off. One leaf of the cabbage was immersed in the test chemical solution for 60 seconds. After air-drying, the leaf was placed in a cup having a volume of 500 ml in which filter paper had been spread on the bottom. In the cup, 10 third instar larvae of Spodoptera litura were released (the inside of the cup containing the treated cabbage was regarded as the treated area). […]
An insecticidal ratio was calculated by correcting the results using the following equation. […]

Compound	Insecticidal ratio (%) (active ingredient 3.13 ppm)	Insecticidal ratio (%) (active ingredient 6.25 ppm)
COC(=O)N(C(=O)N1CO[C@@]2(C(=O)OC)Cc3cc(Cl)ccc3C2=N1)c1ccc(OC(F)(F)F)cc1 [Indoxacarb, methyl(4aS)-7-chloro-2,5-dihydro-2-[[(methoxycarbonyl)[4-(trifluoromethoxy)phenyl]amino]carbonyl]indeno[1,2-e] [1,3,4]oxadiazine-4a(3H)-carboxylate]	16.7	
FC(F)(F)c1ccc(OCCCOc2c(Cl)cc(OCC=C(Cl)Cl)cc2Cl)nc1 [Pyridalyl, 2-[3-[2,6-dichloro-4-[(3,3-dichloro-2-propenyl)oxy]phenoxy]propoxy]-5-(trifluoromethyl)pyridine]		10.0
